How the values were obtained:
[1] = molecular target: T1, Recombinant STAT6 protein (STAT6(W123-T658)) (Homo sapiens, UniProt P42226); assay: STAT6 Fluorescence Polarization (FP) Assay; assay type: binding; conditions: STAT6(W123-T658) 250 nM, probe 5-FAM-ApYKPFQDLI-NH2 2 nM, 45-minute incubation
T1 construct: Recombinant STAT6 protein (STAT6(W123-T658))
T1 sequence (P42226 123-658): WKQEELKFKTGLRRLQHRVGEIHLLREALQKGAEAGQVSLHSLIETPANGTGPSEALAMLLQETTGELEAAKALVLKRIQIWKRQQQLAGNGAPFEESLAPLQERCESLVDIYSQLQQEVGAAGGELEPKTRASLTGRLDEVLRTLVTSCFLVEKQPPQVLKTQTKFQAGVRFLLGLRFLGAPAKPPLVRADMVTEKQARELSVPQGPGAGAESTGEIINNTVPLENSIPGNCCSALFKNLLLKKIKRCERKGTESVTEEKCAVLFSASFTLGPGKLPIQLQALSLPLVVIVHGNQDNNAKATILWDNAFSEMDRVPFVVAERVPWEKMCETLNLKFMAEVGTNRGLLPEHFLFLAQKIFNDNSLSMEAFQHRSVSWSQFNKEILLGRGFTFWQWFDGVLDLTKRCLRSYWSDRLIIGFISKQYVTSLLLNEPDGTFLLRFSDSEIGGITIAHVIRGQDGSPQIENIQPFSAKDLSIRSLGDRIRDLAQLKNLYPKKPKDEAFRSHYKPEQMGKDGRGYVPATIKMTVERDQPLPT
How it was run: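 Displacement of a fluorescent phosphotyrosine peptide (5-FAM-ApYKPFQDLI-NH2, 2 nM) from STAT6(W123-T658) (250 nM), 1% DMSO, pH 7.4 HEPES buffer. After 45 min at room temperature, polarization (mP) was plotted versus log compound concentration and fitted by nonlinear regression to give IC50.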

[2] = molecular target: T2, Recombinant STAT3 protein (STAT3(G127-I722)) (Homo sapiens, UniProt P40763); assay: STAT3 Fluorescence Polarization (FP) Assay; assay type: binding; conditions: STAT3(G127-I722) 25 nM, probe 5-FAM-GpYLPQTV-NH2 2 nM, 45-minute incubation
T2 construct: Recombinant STAT3 protein (STAT3(G127-I722))
How it was run: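 STAT3(G127-I722), 25 nM, was mixed with 2 nM 5-FAM-GpYLPQTV-NH2 probe in HEPES pH 7.4 buffer with 1% DMSO and serially diluted compound. FP (mP) was read after 45 min at room temperature. IC50 came from nonlinear regression.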

T2 sequence (P40763 127-722): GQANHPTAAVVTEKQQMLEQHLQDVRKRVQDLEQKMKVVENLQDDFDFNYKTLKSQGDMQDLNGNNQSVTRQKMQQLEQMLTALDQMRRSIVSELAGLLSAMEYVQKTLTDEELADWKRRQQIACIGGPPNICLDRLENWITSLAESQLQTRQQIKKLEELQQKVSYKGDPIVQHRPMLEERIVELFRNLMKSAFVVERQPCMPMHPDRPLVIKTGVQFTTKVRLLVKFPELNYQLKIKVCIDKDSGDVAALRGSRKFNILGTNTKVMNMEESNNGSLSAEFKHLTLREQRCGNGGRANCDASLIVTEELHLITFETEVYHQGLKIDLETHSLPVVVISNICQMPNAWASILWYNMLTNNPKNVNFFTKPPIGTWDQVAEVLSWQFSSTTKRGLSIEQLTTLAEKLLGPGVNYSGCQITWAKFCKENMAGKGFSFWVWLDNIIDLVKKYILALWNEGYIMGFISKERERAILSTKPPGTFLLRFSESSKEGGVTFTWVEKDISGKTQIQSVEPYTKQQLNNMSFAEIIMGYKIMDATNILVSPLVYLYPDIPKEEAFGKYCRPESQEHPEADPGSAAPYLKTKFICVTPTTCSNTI

IC50 [1] [nM]	IC50 [2] [nM]	SMILES
300 to 3000	1000 to 10000	CC(=O)N1CC[C@H]2CC[C@@H](C(=O)N3C[C@H](C#N)[C@@]4(C3)C(=O)Nc3ccccc34)N2C(=O)[C@@H](NC(=O)c2cc3cc(C(F)(F)P(=O)(O)O)ccc3s2)C1 (single isomer, unassigned) [Compound 13, ((2-(((5S,8S,10aR)-3-acetyl-8-((3R,4′R or 3S,4′S)-4′-cyano-2-oxospiro[indoline-3,3′-pyrrolidine]-1′-carbonyl)-6-oxodecahydropyrrolo[1,2-a][1,5]diazocin-5-yl)carbamoyl)benzo[b]thiophen-5-yl)difluoromethyl)phosphonic acid]
≤ 300	1000 to 10000	CC(=O)N1CC[C@H]2CC[C@@H](C(=O)N3C[C@H](c4cc[nH]c(=O)c4)[C@@H](C#N)C3)N2C(=O)[C@@H](NC(=O)c2ccc3ccc(C(F)(F)P(=O)(O)O)cc3c2)C1 (single isomer, unassigned) [Compound 38, ((7-(((5S,8S,10aR)-3-acetyl-8-((3R,4S or 3S,4R)-3-cyano-4-(2-oxo-1,2-dihydropyridin-4-yl)pyrrolidine-1-carbonyl)-6-oxodecahydropyrrolo[1,2-a][1,5]diazocin-5-yl)carbamoyl)naphthalen-2-yl)difluoromethyl)phosphonic acid]
≤ 300	1000 to 10000	CC(=O)N1CC[C@H]2CC[C@@H](C(=O)N3C[C@@H](C#N)[C@H](c4cc[nH]c(=O)c4)C3)N2C(=O)[C@@H](NC(=O)c2ccc3ccc(C(F)(F)P(=O)(O)O)cc3c2)C1 (single isomer, unassigned) [Compound 39, ((7-(((5S,8S,10aR)-3-acetyl-8-((3S,4R or 3R,4S)-3-cyano-4-(2-oxo-1,2-dihydropyridin-4-yl)pyrrolidine-1-carbonyl)-6-oxodecahydropyrrolo[1,2-a][1,5]diazocin-5-yl)carbamoyl)naphthalen-2-yl)difluoromethyl)phosphonic acid]
≤ 300	1000 to 10000	CC(=O)N1CC[C@H]2CC[C@@H](C(=O)N3C[C@@H](C#N)[C@H](c4ccccc4)C3)N2C(=O)[C@@H](NC(=O)c2cc3cc(C(F)(F)P(=O)(O)O)ccc3s2)C1 (single isomer, unassigned) [Compound 52, ((2-(((5S,8S,10aR)-3-acetyl-8-((3S,4R or 3R,4S)-3-cyano-4-phenylpyrrolidine-1-carbonyl)-6-oxodecahydropyrrolo[1,2-a][1,5]diazocin-5-yl)carbamoyl)benzo[b]thiophen-5-yl)difluoromethyl)phosphonic acid]
≤ 300	1000 to 10000	CC(=O)N1CC[C@H]2CC[C@@H](C(=O)N3C[C@H](C(N)=O)[C@@H](c4ccccc4)C3)N2C(=O)[C@@H](NC(=O)c2cc3cc(C(F)(F)P(=O)(O)O)ccc3s2)C1 (single isomer, unassigned) [Compound 59, ((2-(((5S,8S,10aR)-3-acetyl-8-((3R,4S or 3S,4R)-3-carbamoyl-4-phenylpyrrolidine-1-carbonyl)-6-oxodecahydropyrrolo[1,2-a][1,5]diazocin-5-yl)carbamoyl)benzo[b]thiophen-5-yl)difluoromethyl)phosphonic acid]
300 to 3000	1000 to 10000	CC(=O)N1CC[C@H]2CC[C@@H](C(=O)N3CC[C@H](Cc4cccnc4)C3)N2C(=O)[C@@H](NC(=O)c2cc3cc(C(F)(F)P(=O)(O)O)ccc3s2)C1 (single isomer, unassigned) [Compound 65, ((2-(((5S,8S,10aR)-3-acetyl-6-oxo-8-((S)-3-(pyridin-3-ylmethyl)pyrrolidine-1-carbonyl)decahydropyrrolo[1,2-a][1,5]diazocin-5-yl)carbamoyl)benzo[b]thiophen-5-yl)difluoromethyl)phosphonic acid or ((2-(((5S,8S,10aR)-3-acetyl-6-oxo-8-((R)-3-(pyridin-3-ylmethyl)pyrrolidine-1-carbonyl)decahydropyrrolo[1,2-a][1,5]diazocin-5-yl)carbamoyl)benzo[b]thiophen-5-yl)difluoromethyl)phosphonic acid]
≤ 300	1000 to 10000	CC(=O)N1CC[C@H]2CC[C@@H](C(=O)N3C[C@H](c4ccccc4)[C@@H](C#N)C3)N2C(=O)[C@@H](NC(=O)c2cc3cc(C(F)(F)P(=O)(O)O)ccc3[nH]2)C1 (single isomer, unassigned) [Compound 138, ((2-(((5S,8S,10aR)-3-acetyl-8-((3R,4S or 3S,4R)-3-cyano-4-phenylpyrrolidine-1-carbonyl)-6-oxodecahydropyrrolo[1,2-a][1,5]diazocin-5-yl)carbamoyl)-1H-indol-5-yl)difluoromethyl)phosphonic acid]
≤ 300	1000 to 10000	CC(=O)N1CC[C@H]2CC[C@@H](C(=O)N3C[C@@H](C#N)[C@H](c4ccccc4)C3)N2C(=O)[C@@H](NC(=O)c2cc3cc(C(F)(F)P(=O)(O)O)ccc3[nH]2)C1 (single isomer, unassigned) [Compound 139, ((2-(((5S,8S,10aR)-3-acetyl-8-((3S,4R or 3R,4S)-3-cyano-4-phenylpyrrolidine-1-carbonyl)-6-oxodecahydropyrrolo[1,2-a][1,5]diazocin-5-yl)carbamoyl)-1H-indol-5-yl)difluoromethyl)phosphonic acid]
300 to 3000	1000 to 10000	CCN1CC[C@H]2CC[C@@H](C(=O)N3C[C@@H](C#N)[C@H](c4ccccc4)C3)N2C(=O)[C@@H](NC(=O)c2cc3cc(C(F)(F)P(=O)(O)O)ccc3s2)C1 (single isomer, unassigned) [Compound 222, ((2-(((5S,8S,10aR)-8-((3S,4R or 3R,4S)-3-cyano-4-phenylpyrrolidine-1-carbonyl)-3-ethyl-6-oxodecahydropyrrolo[1,2-a][1,5]diazocin-5-yl)carbamoyl)benzo[b]thiophen-5-yl)difluoromethyl)phosphonic acid]
≤ 300	100 to 1000	CCN1CC[C@H]2CC[C@@H](C(=O)N3C[C@@H](C#N)[C@H](c4ccccc4)C3)N2C(=O)[C@@H](NC(=O)c2cc3cc([C@H](F)P(=O)(O)O)ccc3s2)C1 (single isomer, unassigned) [Compound 232, ((R or S)-(2-(((5S,8S,10aR)-8-((3S,4R or 3R,4R)-3-cyano-4-phenylpyrrolidine-1-carbonyl)-3-ethyl-6-oxodecahydropyrrolo[1,2-a][1,5]diazocin-5-yl)carbamoyl)benzo[b]thiophen-5-yl)fluoromethyl)phosphonic acid]
300 to 3000	1000 to 10000	CCN1CC[C@H]2CC[C@@H](C(=O)N3C[C@@H](C#N)[C@H](c4cc[nH]c(=O)c4)C3)N2C(=O)[C@@H](NC(=O)c2ccc3ccc(C(F)(F)P(=O)(O)O)cc3c2)C1 (single isomer, unassigned) [Compound 238, ((7-(((5S,8S,10aR)-8-((3R,4S or 3S,4R)-3-cyano-4-(2-oxo-1,2-dihydropyridin-4-yl)pyrrolidine-1-carbonyl)-3-ethyl-6-oxodecahydropyrrolo[1,2-a][1,5]diazocin-5-yl)carbamoyl)naphthalen-2-yl)difluoromethyl)phosphonic acid]
